d = 2'-deoxy (DNA); r = 2'-OH (RNA)
Key:
[1] = tested on: KH OS and U-2 OS cells; experiment: DXR effects in OS cells (TUNEL, protein expression); type: cell-based, human
Description: Sustained silencing of CLU gene expression in OS cells by siRNA results in significant sensitization to apoptosis induced by genotoxic and oxidative stress. Prior to CLU functional assays, we analyzed the DXR effects in OS cells since the drug-related reported effects vary in different cell-types (Gewritz et al., Biochem. Pharmacol. 57: 727-741 (1999)). As the DXR plasma concentration in treated patients fall into a range of 1-2 μM and decline into a range of 0.025-0.25 μM within 1 h (Muller et al, Cancer Chemother. Pharmacol., 32: 379-384 (1993)) cells were treated with 0.35 and 1 μM of DXR. To analyze the extent of the DXR-mediated cell death we scored apoptosis by TUNEL. Attached cells following drug treatment for 24 h underwent significant morphological changes as compared to non-treated control cells. […] On-going apoptosis is also apparent 24 h later, verifying that apoptosis is a dynamic process that continues even after DXR removal from the medium.

[2] = human, in vivo; cited from earlier work
[3] = tested on: clusterin; experiment: Clusterin Western blot in PC3 cells; type: cell-based, human; details: 10, 50 and 100 nM
Description: 8 species of siRNA targeting clusterin were formed as double-stranded RNA from Seq. ID NOs. 1 and 2, 3 and 4, 5 and 6, 7 and 8, 9 and 10, 11 and 12, 13 and 14, and 15 and 16, and labeled as CLU1-CLU 8, respectively. PC3 cells were transfected with various doses (10, 50 and 100 nM) of the 8 species of siRNA or scrambled control. Three days after treatment, proteins were extracted and analyzed by Western blotting for clusterin levels (MW=40 and 60 kDa).
Densitometric measurements were performed after normalization to a vinculin control the blots for cells treated with CLU-5 (Seq ID Nos. 9 and 10). “Oligo” cells were treated with oligoFECTAMINE™ only.

[4] = tested on: clusterin; experiment: Clusterin Western blot in A549 cells; type: cell-based, human; details: 10, 50 and 100 nM
[5] = tested on: clusterin transcript; experiment: Clusterin transcript by Real Time PCR in PC3 cells; type: cell-based, human; details: 10, 50 or 100 nM, two days
Description: (§1) PC3 cells were transfected with siRNA at levels of 10, 50 or 100 nM or with 100 nM scrambled control. Two days after transfection, total RNA was extracted and the level of clusterin transcript was quantified by Real Time PCR.

[6] = tested on: clusterin transcript; experiment: Clusterin transcript by Real Time PCR in A549 cells; type: cell-based, human; details: 10, 50 or 100 nM, two days
Description: as §1
The experiment of Example 9 was repeated using A549 cells in place of PC3 cells.

[7] = tested on: clusterin transcript; experiment: Clusterin transcript by Northern blot in PC3 cells; type: cell-based, human; details: all doses (10, 50 or 100 nM), two days
Description: PC3 cells were treated (1 pulse) with CLU-3 (Seq ID NOs. 5 and 6) or CLU-5 (Seq ID Nos 9 and 10) or with a scrambled control at levels of 10, 50 or 100 nM, or with oligoFECTAMINE™ only. After two days total RNA was extracted and analyzed for clusterin and GADPH by Northern blotting. Densitometric measurement was performed. FIG. 10 presents results of these measurements after normalization to GADPH.

[8] = tested on: PC3 cells; experiment: PC3 cell viability with siRNA and Taxol, MTT assay; type: cell-based, human; details: 25 nM siRNA, then Taxol three days
Description: PC3 cells were treated once with 25 nM human clusterin siRNAs (CLU-3 and CLU-5), a scrambled control, or oligoFECTAMINE™ only. After two days of treatment, the medium was replaced with medium containing various concentrations of Taxol (Paclitaxel). After three days of incubation, cell viability was determined by MTT assay. FIG. 11 summarizes the results.

[9] = tested on: clusterin transcript; experiment: Clusterin mRNA by Northern blot in OVCAR3 cells; type: cell-based, human; details: 1, 10 or 50 nM, two days
Description: OVCAR3 ovarian cancer cells were treated once with 1, 10 or 50 nM CLU5, scrambled control or a vehicle only control. An untreated control was also run. After two days, total RNA was extracted and analyzed for clusterin and GAPDH mRNA by Northern blot.

[10] = tested on: clusterin transcript; experiment: Clusterin mRNA by Northern blot in MDA-MB 231 cells; type: cell-based, human; details: 5, 50 or 100 nM, two days
Description: MDA-MB 231 human breast cancer cells were transfected with 5, 50 or 100 nM CLU-5 or a scrambled control, or with oligoFECTAMINE™ vehicle alone. Two days after transfection, RNA was extracted and analyzed for clusterin and GAPDH by Northern blotting.

[11] = tested on: clusterin transcript; experiment: Clusterin mRNA by Northern blot in MCF-7 cells; type: cell-based, human; details: 5, 25 or 50 nM, two days
Description: MCF-7 human breast cancer cells were transfected with 5, 25 or 50 nM CLU-5 or a scrambled control, or with oligoFECTAMINE™ vehicle alone. Two days after transfection, RNA was extracted and analyzed for clusterin and GAPDH by Northern blotting.

[12] = tested on: clusterin; experiment: Clusterin Western blot in MCF-7 cells; type: cell-based, human; details: 5 and 50 nM, three days
Description: MCF-7 cells were transfected with various doses (5 and 50 nM) of CLU-5 siRNA or scrambled control. Three days after treatment, proteins were extracted and analyzed by Western blotting for clusterin levels (MW=40 and 60 kDa).

[13] = tested on: clusterin; experiment: Clusterin Western blot in clusterin overexpressing LNCaP/T1 cells; type: cell-based, human; details: 10 nM, 1 pulse, three days
Description: Clusterin overexpressing LNCaP)/T1 cells were transfected (1 pulse) with 10 nM CLU-5 siRNA or scrambled control. Three days after treatment, the proteins were extracted and analyzed by Western blotting for clusterin.

Row | Compound | bcl-2 expression ([1]; KH OS and U-2 OS cells) | accumulation of p53, p21 and bax ([1]; OS cell lines) | PARP cleavage ([1]; OS cells after DXR treatment) | apoptosis by TUNEL ([1]; OS cells, 0.35 and 1 μM DXR, 24 h) | plasma concentration [2] | clusterin by densitometry normalized to vinculin [3] | amount of clusterin (Western blot) ([3]; three days) | clusterin by densitometry normalized to vinculin [4] | amount of clusterin transcript [5] | amount of clusterin transcript [6] | amount of clusterin transcript normalized to GADPH [7] | viable cells with siRNA plus Taxol [8] | amount of clusterin transcript normalized to GAPDH [9] | amount of clusterin transcript normalized to GAPDH [10] | amount of clusterin transcript normalized to GAPDH [11] | amount of clusterin protein relative to scrambled control [12] | clusterin detected by Western blot [13]
1 | COc1cccc2c1C(=O)c1c(O)c3c(c(O)c1C2=O)C[C@@](O)(C(=O)CO)C[C@@H]3O[C@H]1C[C@H](N)[C@H](O)[C@H](C)O1 [DXR] | no altered expression | found only in U-2 OS cells | accompanied by PARP cleavage | a significant number of them are TUNEL positive | 1000 to 2000 nM |  |  |  |  |  |  |  |  |  |  |  | 
2 | CLU-5: clusterin siRNA, double-stranded RNA from Seq. ID NOs. 9 and 10 (chain 1 AUGAUGAAGACUCUGCUGCTT; chain 2 GCAGCAGAGUCUUCAUCAUTT; sugars from the 5' end r19 d2, backbone not given here) |  |  |  |  |  | dose dependent response | best results | dose dependent response | reduction in the amount of clusterin transcript | reduction in the amount of clusterin transcript | Reduction in the amount of clusterin transcript | worked in synergy | Substantial dose dependent reduction | Substantial reduction | Substantial dose-dependent reduction | reduction in the amount of clusterin protein | No clusterin was detected

Reference: patent publication US8759308B2, “RNAi probes targeting cancer-related proteins” (The University of British Columbia, priority 2002, dated 2014)
